Measured values as given in US20200270309A1, “MALEIMIDE GROUP-MODIFIED ANGIOGENESIS INHIBITOR HM-1 AND USE THEREOF” (NANJING ANJI BIOLOGICAL TECHNOLOGY CO., LTD, priority 2017, published 2020).
Where two headings read alike, the source gives them in different places. Peptide text beside a SMILES is read from it. * marks the point of attachment. Hexanoyl(6-maleimido) = O=C1C=CC(=O)N1CCCCCC(=O)*; Propanoyl(3-maleimido) = O=C1C=CC(=O)N1CCC(=O)*; X9 = O=C1C=CC(=O)N1CCOCCOCCOCCOCCOCCCCCCCC(=O)*; X27 = O=C1C=CC(=O)N1CCOCCOCCOCCOCCCCCC(=O)*; X19 = O=C1C=CC(=O)N1CCOCCOCCOCCOCCOCC(=O)*; X25 = O=C1C=CC(=O)N1CCOCCOCCOCCOCCCCC(=O)*; X2 = O=C1C=CC(=O)N1CCOCCOCCCCCC(=O)*; X76 = O=C1C=CC(=O)N1CCOCCCCCCCC(=O)*; X51 = O=C1C=CC(=O)N1c1ccccc1CC(=O)*; X45 = O=C1C=CC(=O)N1CCCCC(=O)*

Experiment: Half-lives and pharmacokinetic parameters of polypeptides vs HM-1
Conditions: in vivo
[1] = read-out: T1/2β (half-life) (converted)

Row | AUC(0-inf) | MRT inf | clearance | half-life (T1/2β (half-life)) | AUC(0-inf) (read-out: AUC0-∞) | clearance (read-out: CL (converted)) | MRT inf (read-out: MRT0-∞) | half-life [1] | SMILES | half-life
1 | 34600 ± 8180 ng·h/mL | 61.9 ± 9.54 h | 0.482 mL/min/kg | 42.91 ± 0.25 h |  |  |  |  | C[C@H](NC(=O)CNC(=O)[C@H](CCCNC(=N)N)NC(=O)COCCOCCOCCOCCOCCN1C(=O)C=CC1=O)C(=O)N[C@@H](CC(=O)O)C(=O)N[C@@H](CCCNC(=N)N)C(=O)N[C@@H](C)C(=O)NCC(=O)NCC(=O)NCC(=O)NCC(=O)N[C@@H](CCCNC(=N)N)C(=O)NCC(=O)N[C@@H](CC(=O)O)C(=O)O [X77] (X19-RGADRAGGGGRGD-OH) | 
2 | 33700 ± 7090 ng·h/mL | 60.4 ± 13.7 h | 0.495 mL/min/kg | 41.82 ± 0.29 h |  |  |  |  | C[C@H](NC(=O)CNC(=O)[C@H](CCCNC(=N)N)NC(=O)CCCCCOCCOCCOCCOCCN1C(=O)C=CC1=O)C(=O)N[C@@H](CC(=O)O)C(=O)N[C@@H](CCCNC(=N)N)C(=O)N[C@@H](C)C(=O)NCC(=O)NCC(=O)NCC(=O)NCC(=O)N[C@@H](CCCNC(=N)N)C(=O)NCC(=O)N[C@@H](CC(=O)O)C(=O)O [X74] (X27-RGADRAGGGGRGD-OH) | 
3 |  |  |  |  | 30100 ± 7330 ng·h/mL | 0.553 mL/min/kg | 54 ± 10.5 h | 37.44 ± 0.27 h | C[C@H](NC(=O)CNC(=O)[C@H](CCCNC(=N)N)NC(=O)CCCCN1C(=O)C=CC1=O)C(=O)N[C@@H](CC(=O)O)C(=O)N[C@@H](CCCNC(=N)N)C(=O)N[C@@H](C)C(=O)NCC(=O)NCC(=O)NCC(=O)NCC(=O)N[C@@H](CCCNC(=N)N)C(=O)NCC(=O)N[C@@H](CC(=O)O)C(=O)O [X4] (X45-RGADRAGGGGRGD-OH) | 
4 | 33600 ± 7340 ng·h/mL | 60 ± 12.5 h | 0.497 mL/min/kg | 41.58 ± 0.34 h |  |  |  |  | C[C@H](NC(=O)CNC(=O)[C@H](CCCNC(=N)N)NC(=O)Cc1ccccc1N1C(=O)C=CC1=O)C(=O)N[C@@H](CC(=O)O)C(=O)N[C@@H](CCCNC(=N)N)C(=O)N[C@@H](C)C(=O)NCC(=O)NCC(=O)NCC(=O)NCC(=O)N[C@@H](CCCNC(=N)N)C(=O)NCC(=O)N[C@@H](CC(=O)O)C(=O)O [X13] (X51-RGADRAGGGGRGD-OH) | 
5 | 24300 ± 8150 ng·h/mL | 43.5 ± 12.4 h | 0.687 mL/min/kg | 30.1 ± 0.36 h |  |  |  |  | C[C@H](NC(=O)CNC(=O)[C@H](CCCNC(=N)N)NC(=O)CCCCCCCOCCN1C(=O)C=CC1=O)C(=O)N[C@@H](CC(=O)O)C(=O)N[C@@H](CCCNC(=N)N)C(=O)N[C@@H](C)C(=O)NCC(=O)NCC(=O)NCC(=O)NCC(=O)N[C@@H](CCCNC(=N)N)C(=O)NCC(=O)N[C@@H](CC(=O)O)C(=O)O [X55] (X76-RGADRAGGGGRGD-OH) | 
6 | 29200 ± 7640 ng·h/mL | 52.3 ± 11.7 h | 0.57 mL/min/kg | 36.23 ± 0.28 h |  |  |  |  | C[C@H](NC(=O)CNC(=O)[C@H](CCCNC(=N)N)NC(=O)CCCCCCCOCCOCCOCCOCCOCCN1C(=O)C=CC1=O)C(=O)N[C@@H](CC(=O)O)C(=O)N[C@@H](CCCNC(=N)N)C(=O)N[C@@H](C)C(=O)NCC(=O)NCC(=O)NCC(=O)NCC(=O)N[C@@H](CCCNC(=N)N)C(=O)NCC(=O)N[C@@H](CC(=O)O)C(=O)O [X83] (X9-RGADRAGGGGRGD-OH) | 
7 | 26700 ± 8240 ng·h/mL | 47.9 ± 13.6 h | 0.623 mL/min/kg | 33.16 ± 0.26 h |  |  |  |  | C[C@H](NC(=O)CNC(=O)[C@H](CCCNC(=N)N)NC(=O)CCCCOCCOCCOCCOCCN1C(=O)C=CC1=O)C(=O)N[C@@H](CC(=O)O)C(=O)N[C@@H](CCCNC(=N)N)C(=O)N[C@@H](C)C(=O)NCC(=O)NCC(=O)NCC(=O)NCC(=O)N[C@@H](CCCNC(=N)N)C(=O)NCC(=O)N[C@@H](CC(=O)O)C(=O)O [X73] (X25-RGADRAGGGGRGD-OH) | 
8 |  |  |  |  | 31800 ± 8090 ng·h/mL | 0.525 mL/min/kg | 56.9 ± 14.2 h | 3944 ± 0.27 h | C[C@H](NC(=O)CNC(=O)[C@H](CCCNC(=N)N)NC(=O)CCN1C(=O)C=CC1=O)C(=O)N[C@@H](CC(=O)O)C(=O)N[C@@H](CCCNC(=N)N)C(=O)N[C@@H](C)C(=O)NCC(=O)N[C@@H](CO)C(=O)N[C@@H](CO)C(=O)N[C@@H](CO)C(=O)N[C@@H](CO)C(=O)N[C@@H](CCCNC(=N)N)C(=O)NCC(=O)N[C@@H](CC(=O)O)C(=O)O [P13] ({Propanoyl(3-maleimido)}-RGADRAGSSSSRGD-OH; C-terminus assumed) | 
9 | 30200 ± 7290 ng·h/mL | 54.1 ± 11.7 h | 0.552 mL/min/kg | 37.51 ± 0.25 h |  |  |  |  | C[C@H](NC(=O)CNC(=O)[C@H](CCCNC(=N)N)NC(=O)CCCCCOCCOCCN1C(=O)C=CC1=O)C(=O)N[C@@H](CC(=O)O)C(=O)N[C@@H](CCCNC(=N)N)C(=O)N[C@@H](C)C(=O)NCC(=O)NCC(=O)NCC(=O)NCC(=O)N[C@@H](CCCNC(=N)N)C(=O)NCC(=O)N[C@@H](CC(=O)O)C(=O)O [X60] (X2-RGADRAGGGGRGD-OH) | 

Row | SMILES | AUC(0-inf) | MRT inf | clearance | half-life (T1/2β (half-life)) | AUC(0-inf) (read-out: AUC0-∞) | clearance (read-out: CL (converted)) | MRT inf (read-out: MRT0-∞) | half-life [1] | half-life
10 | C[C@H](NC(=O)[C@H](CCCNC(=N)N)NC(=O)[C@H](CC(=O)O)NC(=O)[C@H](CCC(=O)O)NC(=O)CNC(=O)[C@H](CCCNC(=N)N)NC(=O)CCCCCN1C(=O)C=CC1=O)C(=O)NCC(=O)NCC(=O)NCC(=O)NCC(=O)N[C@@H](CCCNC(=N)N)C(=O)NCC(=O)N[C@@H](CC(=O)O)C(=O)O [P6] ({Hexanoyl(6-maleimido)}-RGEDRAGGGGRGD-OH; C-terminus assumed) | 27700 ± 7130 ng·h/mL | 49.6 ± 9.97 h | 0.602 mL/min/kg |  |  |  |  |  | 34.36 ± 0.25 h
